Values joined by “and” are separate entries in the source; they are usually repeats but may differ in a detail not shown here. Equal entries are not always repeated.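 Interpolation was linear, between the two tested concentrations surrounding the appropriate level; five concentrations were tested over 48 hours in 96-well plates. Abbreviation: GI50, concentration required for 50% inhibition of growth. TGI: concentration producing complete growth inhibition.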
Experiments:
Test in all cases: growth of human tumour cells (NCI), 48 h
[1] = system: SNB-75 CNS
[2] = system: LOX IMVI melanoma
[3] = system: A498 renal
[4] = system: SF-268 CNS
[5] = system: HS 578T breast
[6] = system: NCI-H460 lung
[7] = system: SK-MEL-28 melanoma
[8] = system: OVCAR-3 ovarian
[9] = system: SF-295 CNS
[10] = system: NCI-H226 lung

SMILES | GI50 [1] [µM] | TGI [1] | GI50 [2] [µM] | TGI [2] | GI50 [3] [µM] | TGI [3] | GI50 [4] [µM] | TGI [4] | GI50 [5] [µM] | TGI [5] | GI50 [6] [µM] | TGI [6] | GI50 [7] [µM] | TGI [7] | GI50 [8] [µM] | TGI [8] | GI50 [9] [µM] | TGI [9] | GI50 [10] [µM] | TGI [10]
C[C@@H](Oc1cc(-c2cnn(C3CC4(CCNCC4)C3)c2)cnc1N)c1c(F)ccc(Cl)c1Cl | 1.32 | 2.92 µM | 1.22 | 2.56 µM | 0.488 | 2.35 µM | 1.64 | 4.71 µM | 1.37 | 4.15 µM | 0.855 | 2.84 µM | 1.55 | 3.2 µM | 1.83 | 5.19 µM | 0.612 | 2.43 µM | 2.51 | 17.5 µM
COc1cc(N)ccc1Nc1c2ccccc2nc2ccccc12 | 10.8 | 31.2 µM | 5.27 | 35.4 µM | 6.28 | 22.4 µM | 14.2 | 35.3 µM | 14.3 | 44.3 µM | 1.38 | 7.72 µM | 16.3 | 34.9 µM | 12.2 | 25.4 µM | 12 | 30.1 µM | 2.35 | 10.2 µM
Cc1c(N(C(=O)c2cc(-c3cc(Cl)ccc3C(=O)N3Cc4ccccc4C[C@H]3CN3CCOCC3)n(C)c2C)c2ccc(O)cc2)cc(C#N)n1C | 9.79 | 30.9 µM | 14.6 | > 100 µM | 23.2 | 61.6 µM | 20.5 | > 100 µM | 19 | 75.3 µM | 31.3 | > 100 µM | 31.3 | > 100 µM | 11 | > 100 µM | 13.2 | > 100 µM | 14.1 | 44.4 µM
CNC(=O)c1ccc(Nc2nc(OC3CCCC3)c3c(-c4ccc5nc(C)oc5c4)c[nH]c3n2)c(OC)c1 | 0.474 | > 100 µM | 0.381 | > 100 µM | 0.547 | > 100 µM | > 47.2 | > 100 µM | 31.5 | > 100 µM | 0.119 | > 100 µM | 41.4 | > 100 µM | 0.427 | > 44.6 µM | – | > 100 µM | 9.04 | > 100 µM
COc1cc(/C=C/C(=O)CC(=O)/C=C/c2ccc(OC(=O)CCNC34CC5CC(CC(C5)C3)C4)c(OC)c2)ccc1OC(=O)CCNC12CC3CC(CC(C3)C1)C2 | 4.85 | 22.5 µM | 1.96 | 4.14 µM | 4.61 | 17.5 µM | 3.01 | 13.2 µM | 2.85 | 9.17 µM | 2.5 | 6.33 µM | 3.79 | 17.2 µM | 4.09 | 21.9 µM | 2.56 | 6.99 µM | 11.8 | 30.5 µM
O=C1C=CC(=O)N1c1ccc2c(c1)Cc1cc(NC(=O)C(F)(F)F)ccc1-2 | – | 31.3 µM | – | 32.7 µM | – | 48.4 µM | – | 39.7 µM | – | 51.9 µM | – | > 100 µM | – | 34.4 µM | – | 31.2 µM | – | > 100 µM | – | 17.6 µM
C=C1C(=O)O[C@H]2[C@H]1CC/C(COC(=O)NCCc1c[nH]c3ccccc13)=C\CC[C@@]1(C)O[C@@H]21 | 8.45 | 21.8 µM | 0.788 | 2.23 µM | 8.19 | 21.2 µM | 2.94 | 13.5 µM | 10.3 | 38.4 µM | 3.82 | 16.3 µM | 1.38 | 3.11 µM | 1.04 | 2.31 µM | 9.68 | 21.4 µM | 1.8 | 3.39 µM
Cc1cc(-c2cc(C)c(O)c(C(C)(C)C)c2)cc(C(C)(C)C)c1O | – | 25.4 µM and 27 µM | – | 29.4 µM and 23.6 µM | – | 21.3 µM and 32.7 µM | – | 23.9 µM and 29 µM | – | 27.1 µM and 32.7 µM | – | 19.4 µM and 17.8 µM | – | 24.5 µM and 34.2 µM | – | 28.4 µM and 27 µM | – | 23.1 µM and 23.2 µM | – | 22.6 µM and 35.9 µM
COc1cc(-c2ccc(-[n+]3nc(-c4ccc([N+](=O)[O-])cc4)nn3-c3ccc([N+](=O)[O-])cc3)c(OC)c2)ccc1-[n+]1nc(-c2ccc([N+](=O)[O-])cc2)nn1-c1ccc([N+](=O)[O-])cc1 | 1.3 | 2.95 µM | 0.347 | 10.1 µM | 2.99 | 13.9 µM | 1.66 | 5.38 µM | 1.93 | 5.07 µM | 3.02 | 11.1 µM | 18 | 64.4 µM | 9.77 | 38.2 µM | 3.07 | 16.1 µM | 12.1 | 45.7 µM
Cc1ccc(-c2nc3nc(-c4ccc(Cl)cc4)nc(N4CCCNCC4)c3o2)cc1 | 1.2 | 2.47 µM | 1.63 | 3.15 µM | 1.88 | 3.56 µM | 1.92 | 3.97 µM | 1.93 | 4.17 µM | 1.93 | 3.76 µM | 1.73 | 3.13 µM | 1.94 | 3.81 µM | 1.82 | 3.39 µM | 1.78 | 3.87 µM

— PubChem BioAssay (NCI)
